Source: patent publication US8617906B2, “Identification and screening of triptolide target molecules” (priority 2004, dated 2013)

Legend:
[1] = system: Hypothetical Protein (GI 14758649), similar to heat shock protein (90 kDa) beta (PG787); experiment: Isolation of proteins binding 3H-triptolide in Jurkat cells; parameters: species or system human; details: 3H-labeled Jurkat cell extract
Method: (§1) Triptolide target molecules were isolated and identified by purification and identification of molecules that bind ^3H-triptolide. Jurkat cells from expanding cultures were labeled with ^3H-triptolide by cultivation at 37° C. with 5% CO2 for a period of time between a few hours and overnight (usually 6-7 hours) and harvested by centrifugation and washing in ice-cold phosphate buffered saline. The cells (usually 1-3×10^6/ml) were generally labeled with ^3H-triptolide to a final concentration of 35 nM (100 μCi/200 ml of medium). Collected cell pellets were pooled, and the cells were either extracted and subjected to separation and purification at that time, or were frozen and stored at −20° C. as pellets for extraction and investigation at a later time.
(§2) The cells were extracted with M-per buffer (Pierce) and homogenized in presence of a protease inhibitor cocktail, sometimes including other reagents such as deoxyribonuclease (DNase). […] When the extracts components were found not to be sufficiently purified, enriched or reduced in number, 2D gel electrophoresis was employed, followed by fluorography for ^3H-associated radioactivity detection, and MALDI/MS of the corresponding peptides (after proteolysis) and peptide fingerprinting. […]

[2] = system: NF-κB; details: cited from earlier work
[3] = system: human T cell lymphoma (Jurkat) cells; details: cited from earlier work
[4] = molecular target: T1, HSP 90β (PG771) (Homo sapiens, UniProt P08238); experiment: Isolation of proteins binding 3H-triptolide in Jurkat cells (FPLC, 2D gel, fluorography, MALDI-MS); details: 3H-labeled compound incubated with Jurkat cells
T1 construct: Jurkat cells from expanding cultures were labeled with; endogenous in cells; host or cells: Jurkat
Method: as §1, with “Collected cell pellets were pooled, and the cells were either extracted and subjected to separation and purification at that time, or were frozen and stored at −20° C. as pellets for extraction and investigation at a later time.” left out
as §2
(§3) MALDI-MS peptide fingerprinting analysis identified HSP 90β (PG771) in fraction #4 and L-plastin (PG772) in fraction #9. […] A positive spot on the film (fluorographically positive, therefore positive for ^3H-associated radioactivity) was seen near the 29 kDa protein marker. […]

[5] = system: T2, Hypothetical Protein (GI 11277141), superfamily HSP 90 (PG788) (Homo sapiens); experiment: Isolation of proteins binding 3H-triptolide in Jurkat cells; details: 3H-labeled Jurkat cell extract
T2 construct: endogenous in cells; host or cells: Jurkat
Method: as §1, §2

[6] = molecular target: T3, Human Serine/Threonine Protein Phosphatase 2A 130 KDa regulatory subunit, PP2A (PG789) (Homo sapiens, UniProt Q06190); experiment: as above; details: 3H-labeled Jurkat cell extract
T3 construct: endogenous in cells; host or cells: Jurkat
Method: as §1, §2

[7] = molecular target: T4, 14-3-3 ε (PG773) (Homo sapiens, UniProt P62258); experiment: as above; details: 3H-labeled compound incubated with Jurkat cells
T4 construct: endogenous in cells; host or cells: Jurkat
Method: as §1, with “Collected cell pellets were pooled, and the cells were either extracted and subjected to separation and purification at that time, or were frozen and stored at −20° C. as pellets for extraction and investigation at a later time.” left out
as §2, §3

T4 sequence (P62258 whole entry): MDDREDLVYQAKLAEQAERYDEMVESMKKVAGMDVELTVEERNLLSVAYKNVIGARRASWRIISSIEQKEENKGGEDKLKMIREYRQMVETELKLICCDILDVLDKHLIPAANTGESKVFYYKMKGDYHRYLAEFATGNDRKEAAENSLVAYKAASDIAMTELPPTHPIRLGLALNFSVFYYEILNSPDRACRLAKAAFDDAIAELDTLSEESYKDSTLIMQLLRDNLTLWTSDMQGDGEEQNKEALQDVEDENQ
T2 sequence (P08238 2-724 limits assumed): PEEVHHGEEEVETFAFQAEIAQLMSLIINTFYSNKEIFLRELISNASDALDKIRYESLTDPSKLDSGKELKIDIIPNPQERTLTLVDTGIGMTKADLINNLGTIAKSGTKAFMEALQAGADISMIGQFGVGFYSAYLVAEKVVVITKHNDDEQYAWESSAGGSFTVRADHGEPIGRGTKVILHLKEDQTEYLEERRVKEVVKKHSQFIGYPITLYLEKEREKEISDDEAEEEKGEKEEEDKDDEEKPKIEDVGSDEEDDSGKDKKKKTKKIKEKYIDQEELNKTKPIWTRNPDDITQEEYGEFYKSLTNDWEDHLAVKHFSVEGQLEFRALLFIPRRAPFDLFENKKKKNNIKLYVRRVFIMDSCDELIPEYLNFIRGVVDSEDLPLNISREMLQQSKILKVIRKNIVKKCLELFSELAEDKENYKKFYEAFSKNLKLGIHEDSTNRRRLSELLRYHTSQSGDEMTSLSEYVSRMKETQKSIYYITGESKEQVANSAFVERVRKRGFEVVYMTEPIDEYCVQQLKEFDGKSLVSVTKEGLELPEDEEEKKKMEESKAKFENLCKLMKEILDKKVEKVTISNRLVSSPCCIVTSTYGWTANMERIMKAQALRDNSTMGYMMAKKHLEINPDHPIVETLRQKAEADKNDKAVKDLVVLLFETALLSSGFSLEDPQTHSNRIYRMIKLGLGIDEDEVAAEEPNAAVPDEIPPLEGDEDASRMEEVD
T3 sequence (Q06190 whole entry): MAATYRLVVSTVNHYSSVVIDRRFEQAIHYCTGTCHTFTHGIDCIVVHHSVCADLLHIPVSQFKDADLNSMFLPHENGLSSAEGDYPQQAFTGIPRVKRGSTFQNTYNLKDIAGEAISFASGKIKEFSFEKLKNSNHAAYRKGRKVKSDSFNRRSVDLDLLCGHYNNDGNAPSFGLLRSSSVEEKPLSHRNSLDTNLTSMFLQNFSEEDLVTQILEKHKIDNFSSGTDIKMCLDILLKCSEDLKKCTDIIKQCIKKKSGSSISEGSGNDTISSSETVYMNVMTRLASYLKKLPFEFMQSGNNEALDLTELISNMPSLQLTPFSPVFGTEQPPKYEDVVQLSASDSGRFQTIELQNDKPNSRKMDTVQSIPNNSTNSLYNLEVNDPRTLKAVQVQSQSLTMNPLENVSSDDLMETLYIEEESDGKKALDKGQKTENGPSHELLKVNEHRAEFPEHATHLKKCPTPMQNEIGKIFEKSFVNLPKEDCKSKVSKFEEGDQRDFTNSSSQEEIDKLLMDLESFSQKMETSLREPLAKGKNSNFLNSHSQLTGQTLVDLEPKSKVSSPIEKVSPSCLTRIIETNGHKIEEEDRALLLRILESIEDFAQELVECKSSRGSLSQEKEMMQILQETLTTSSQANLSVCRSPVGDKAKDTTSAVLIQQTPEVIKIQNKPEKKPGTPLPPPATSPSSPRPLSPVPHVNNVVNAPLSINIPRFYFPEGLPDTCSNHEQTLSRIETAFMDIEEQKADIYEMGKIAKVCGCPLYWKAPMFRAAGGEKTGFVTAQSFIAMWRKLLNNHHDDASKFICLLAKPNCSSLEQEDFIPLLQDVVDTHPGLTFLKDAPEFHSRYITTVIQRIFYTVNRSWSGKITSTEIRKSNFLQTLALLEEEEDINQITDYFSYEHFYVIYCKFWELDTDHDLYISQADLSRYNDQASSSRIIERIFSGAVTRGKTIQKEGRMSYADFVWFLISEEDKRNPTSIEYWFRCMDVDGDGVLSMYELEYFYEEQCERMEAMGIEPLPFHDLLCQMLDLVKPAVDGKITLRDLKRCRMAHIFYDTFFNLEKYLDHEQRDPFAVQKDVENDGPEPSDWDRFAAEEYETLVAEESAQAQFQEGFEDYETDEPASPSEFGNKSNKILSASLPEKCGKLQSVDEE
T1 sequence (P08238 whole entry): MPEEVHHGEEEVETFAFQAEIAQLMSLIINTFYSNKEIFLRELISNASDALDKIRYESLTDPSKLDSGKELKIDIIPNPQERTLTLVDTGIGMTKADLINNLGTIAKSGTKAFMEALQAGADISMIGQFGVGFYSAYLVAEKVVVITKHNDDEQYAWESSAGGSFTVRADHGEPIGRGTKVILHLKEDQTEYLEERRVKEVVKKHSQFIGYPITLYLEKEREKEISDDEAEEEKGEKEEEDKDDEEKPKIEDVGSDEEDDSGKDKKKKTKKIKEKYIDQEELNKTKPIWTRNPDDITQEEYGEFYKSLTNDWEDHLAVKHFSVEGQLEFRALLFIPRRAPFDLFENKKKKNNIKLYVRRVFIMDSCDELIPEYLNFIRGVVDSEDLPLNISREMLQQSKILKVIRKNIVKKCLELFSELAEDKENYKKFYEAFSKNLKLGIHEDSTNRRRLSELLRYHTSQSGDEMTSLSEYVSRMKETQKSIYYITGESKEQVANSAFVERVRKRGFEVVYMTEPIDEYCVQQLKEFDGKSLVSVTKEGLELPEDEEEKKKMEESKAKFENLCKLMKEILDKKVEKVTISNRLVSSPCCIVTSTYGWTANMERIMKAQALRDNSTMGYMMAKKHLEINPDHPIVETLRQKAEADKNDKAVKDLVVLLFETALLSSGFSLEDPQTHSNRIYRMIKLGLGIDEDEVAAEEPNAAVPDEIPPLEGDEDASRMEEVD

SMILES: CC(C)[C@]12O[C@H]1[C@@H]1O[C@]13[C@]1(O[C@H]1C[C@H]1C4=C(CC[C@@]13C)C(=O)OC4)[C@@H]2O [triptolide]
- 3H-associated protein identified as triptolide target: GI 14758649 [1]: identified
- NF-κB activation [2]: inhibit NF-κB activation
- cytotoxicity [3]: cytotoxicity in human T cell lymphoma (Jurkat) cells
- 3H-associated protein identified as triptolide target: HSP 90β [4]: identified
- 3H-associated protein identified as triptolide target: GI 11277141 [5]: identified
- 3H-associated protein identified as triptolide target: PP2A 130 KDa regulatory subunit [6]: identified
- 3H-associated protein identified as triptolide target: 14-3-3 ε [7]: identified
